Experimental data taken from patent US20210093637A1, “TOPICAL OINTMENT FORMULATIONS OF PDE-4 INHIBITOR AND THEIR USE IN TREATING SKIN CONDITIONS” (Dermavant Sciences GmbH, priority 2017, published 2021).
Several values for one entry are separate records, joined by “and”; a condition that tells them apart may be missing. Equal values may be shown once. Entries after “also recorded” stand apart in the source; their conditions may differ. Values belong to the molecule of their own block, whether it stands above or below them.

What was measured:
[1] = Phase 2 study in pediatric patients (Example 6), plasma concentrations of RVT-501 and M11 at Week 1; assay type: in vivo, human; details: for Plasma concentration, Mean (SD) / Plasma concentration, Median / Plasma concentration, Min / Plasma concentration, max / N with concentrations above LLQ (plasma): Week 1 pre-dose, subjects aged 2 to 11 years, twice daily application of RVT-501 0.5%; for N with concentrations above LLQ (plasma): N 16, LLQ 0.25 ng/mL
Description: Pharmacokinetic Endpoint: PK analysis for RVT-501 and M11 metabolite at the Week 1 visit in subjects 2 to 11 years old.
Pharmacokinetic Analyses: RVT-501 and M11 were measured in plasma by a validated assay. Plasma concentrations were summarized as continuous variables.
Pharmacokinetic Concentration Results: A single blood sample was collected pre-dose in subjects aged 2 to 11 years old at Week 1 to assess the concentration of RVT-501 and the M11 metabolite in plasma.

[2] = Stability of E6005 and M11 in human dried blood spots; assay type: physicochemical
Description: Stability: Following stability of E6005 and M11 in DBS was assessed at low and high concentrations using LQC and HQC samples (three replicates/concentration): bench-top stability for 7 days at room temperature, long-term frozen stability for 160 days […] below −15° C., and processed sample stability for 85 h at 4° C. To investigate impacts of high humidity on the stability, bench-top stability test was performed at room temperature with relative humidity of ca. 80%-84%. Samples were considered stable when % bias from the nominal concentrations was within ±15%.

[3] = Blood-to-plasma partition (B/P); assay type: in vitro ADME, human; details: for average B/P of two levels: 3 and 160 ng/mL; for blood plasma ratio at 3 ng/mL / blood plasma ratio at 160 ng/mL: human, whole blood and plasma prepared from it
Description: Blood-to-plasma partition and shelf-life of refrigerated blood: The blood-to-plasma partition (B/P) of E6005 and M11 was determined by assaying concentrations of E6005 and M11 in whole blood samples and plasma samples prepared from blood samples by centrifugation. […] The average B/P of two levels was 0.679 for E6005 and 0.584 for M11.

[4] = tested on: pediatric subjects with mild to moderate atopic dermatitis; experiment: Phase 2 study in pediatric patients (Example 6), safety (adverse events); assay type: in vivo, human
From the text: Safety Endpoint: Frequency and severity of adverse events (AE; local and systemic).
Analysis Populations: All subjects enrolled in the study who had at least one application of investigational product were included in the Safety Set (SS). This was the population for the safety analyses.
Safety Analyses: The number and proportion of subjects with AEs were summarized by treatment, system organ classification, and preferred term for all adverse events, all adverse events considered by the investigator to be related to study drug, all serious adverse events (SAE), all Common Terminology Criteria for Adverse Events (CTCAE) Grade 3 or higher AEs, and all adverse events leading to study discontinuation. Summaries of AEs were presented separately for the Double-Blind and Open-Label Extension Phases.
Laboratory data were analyzed using descriptive summary statistics and changes from baseline. Categorical safety data were analyzed using frequency tables and, if applicable, shift tables. Vital signs were listed by subjects and summarized by treatment.

[5] = tested on: healthy Japanese male subjects; details: cited from earlier work
[6] = tested on: Japanese male subjects with AD; details: ointment 0.01% to 0.2%; cited from earlier work
[7] = tested on: adults with mild to moderate AD; details: 0.2% ointment BID, 4 weeks; cited from earlier work
[8] = tested on: pediatric subjects aged 2 to 15 years with mild to moderate AD; details: 0.05% and 0.2% ointment for 2 weeks; cited from earlier work
[9] = single dermal application; stripped skin; non-fasted male rats; cited from earlier work
[10] = Week 1, RVT-501 0.5% twice daily, person two

highest plasma M11 concentration (Subject 05002) ([1]; Week 1, RVT-501 0.5% twice daily): 16.90 ng/mL
measurable plasma concentrations of the M11 metabolite (eight subjects out of 16) ([1]; Week 1, ages 2-11 years): near the lower limit of quantitation
Plasma concentration, Mean (SD) [1]: 1.50 (4.194) ng/mL
Plasma concentration, Median [1]: 0.19 ng/mL
Plasma concentration, Min [1]: 0 ng/mL
Plasma concentration, max [1]: 16.90 ng/mL
N with concentrations above LLQ (plasma) [1]: 8
% bias ([2]; Bench-top, after 7 days at RT, HQC (160 ng/mL)): 2.5%
% bias ([2]; Bench-top, after 7 days at RT, LQC (3 ng/mL)): 6.0%
% bias ([2]; In processed samples, after 85 h at 4° C., HQC (160 ng/mL)): 0.2%
% bias ([2]; In processed samples, after 85 h at 4° C., LQC (1 ng/mL)): 5.9%
% bias ([2]; Long-term, after 160 days at RT, HQC (160 ng/mL)): 9.4%
% bias ([2]; Long-term, after 160 days at RT, LQC (3 ng/mL)): 0.3%
% bias ([2]; Long-term, after 160 days below −15° C., HQC (160 ng/mL)): −1.3%
% bias ([2]; Long-term, after 160 days below −15° C., LQC (3 ng/mL)): −1.3%
% bias ([2]; Under high humidity, after 7 days at humidity 80-84%, HQC (160 ng/mL)): −12.5%
% bias ([2]; Under high humidity, after 7 days at humidity 80-84%, LQC (3 ng/mL)): −2.3%
average B/P of two levels [3]: 0.584
blood plasma ratio at 3 ng/mL [3]: 0.594
blood plasma ratio at 160 ng/mL [3]: 0.574
Structure (SMILES): CNc1nc(-c2cccc(NC(=O)c3ccc(C(=O)O)cc3)c2)c2cc(OC)c(OC)cc2n1 [Formulation M11, 4-((3-(6,7-dimethoxy-2-(methylamino)quinazolin-4-yl)phenyl)carbamoyl)benzoic acid]

plasma RVT-501 concentration, Subject 03001 ([1]; Week 1, RVT-501 0.5% twice daily, person one): 1.07 ng/mL
plasma RVT-501 concentration, Subject 05002 [1, 10]: 306 ng/mL and 306.00 ng/mL
Plasma concentration, Mean (SD) [1]: 31.69 (88.531) ng/mL
Plasma concentration, Median [1]: 0 ng/mL
Plasma concentration, Min [1]: 0 ng/mL
Plasma concentration, max [1]: 306.00 ng/mL
N with concentrations above LLQ (plasma) [1]: 3
average B/P of two levels [3]: 0.679
blood plasma ratio at 3 ng/mL [3]: 0.69
blood plasma ratio at 160 ng/mL [3]: 0.669
Structure (SMILES): CNc1nc(-c2cccc(NC(=O)c3ccc(C(=O)OC)cc3)c2)c2cc(OC)c(OC)cc2n1 [RVT-501, methyl N-[3-(6,7-dimethoxy-2-methylaminoquinazolin-4-yl)phenyl]terephthalamic acid]
subjects with study-drug-related mild application site pruritus ([4]; Double-Blind Phase): 6.1%
safety and tolerability ([4]; human, in vivo): generally safe and well tolerated
subjects who experienced SAE (all deemed not related) ([4]; human, in vivo): two
plasma RVT-501 concentration, Subject 21001 [1, 10]: above the upper limit of quantification; also recorded: above upper limit of quantitation
skin or systemic AEs ([5]; 0.01%-0.2% ointment QD or BID up to 11 days, patch/photopatch): No significant skin or systemic AEs
skin irritation, adverse events, laboratory values, vital signs, ECG, ophthalmological findings ([5]; ointment 0.01% to 0.2%): no clinically-significant findings
skin irritation, adverse events, laboratory values, vital signs, ECG, ophthalmological findings [6]: no clinically-significant findings
tolerability [7]: tolerability was good
adverse events attributable to the investigational product [8]: no adverse events considered attributable to the investigational product
radiolabelled RVT-501 in the skin application site 24 hours after administration, relative to levels after 30 minutes [9]: 75%
